In patent US5462929A, “Treatment of psoriasis by administration of 4-carbamoyl-1-β-D-ribofuranosylimidszolium-5-oleate” (Asahi Kasei Kogyo Kabushiki Kaisha, priority 1991, dated 1995):
Like-named read-outs stand apart in the source and are kept apart here.

Assays:
mice = settings: cited from earlier work
[1] = tested on: Normal human epidermal keratinocyte cells (NHEK); test: Microscopical observation of cultured keratinocyte cells; type: cell-based; settings: 0.8 and 4 μg/ml, days 5, 7, 9; ×76.5
Method: (§1) Normal human epidermal keratinocyte cells
(§2) (NHEK: human penile prepuce originated secondary cultured cells)
(§3) (1) NHEK was subcultured according to the instruction described in the manual for Epi Pack, to obtain tertiary subcultured cells. Epi Pack medium on arrival was exchanged by fresh K-C,M to which added attached bovine pituitary gland extract (BPE), then NHEK was cultured at 37° C. and on the first day, tertiary cultivation was performed under the same conditions.
(§4) Cultured, day 5, day 7 and day 9: Photographs were taken on the central part of the two plates of 24-well culture plate, and calculated the number of cells.
Magnification of microscopic photographs is ×76.5 in each case.

psoriasis vulgaris = test: Clinical trial on treatment of psoriasis (PASI, adverse effect, overall improvement, usefulness); type: in vivo, human; set-up: key to usefulness: 1: extremely useful; 2: useful; 3: slightly useful; 4: useless; 5: worse; key to overall improvement rate: 1: significantly improved; 2: improved; 3: slightly improved; 4: no change; 5: exacerbation; settings: 300 mg/day oral
Description: 2. Subject: Patients of psoriasis.
(1) Psoriasis vulgaris with median grade which satisfied within the following standard.
a) No consideration for the distinction of sex, inpatient and outpatient.
b) aged over 15 and below 70.
c) PASI [Psoriasis area and Severity Index; Darmtologica, 157; 238-244, 1978: Table 4] over 20 at initial stage of the test.
(2) Following patients are omitted.
b) patients who have suffered with severe bacterial, viral or mycotic infection.
c) person with complication or anamesis of malignant tumor.
d) person with cardiac disorder, renal disorder, blood disorder, gastrointestinal bleeding, peptic ulcer, and other serious complication, and anamesis.
e) a person in pregnancy or in a lactation, and who suspects being pregnant.
f) in addition, persons who are determined by the doctors-in-charge as unfit to participate.
2) Term for dosage: 6 weeks
3) Prohibited other concomitant drugs.
Concomitant use of the following preparation and others are prohibited.
a) Oral dosage of methotrexate, other immunosuppressant, etretinate and steroid preparations.
b) Ultraviolet treatment.
c) Other medicament which seem to be effective for psoriasis [Chinese indigenous medicine (Kampo-Yaku), anti-allergic drug, etc.]
2) Calculation method of PASI:
PASI=0.1 (Eh+Ih+Dh)×Ah+0.3 (Et+It+Dt)×At+0.2 (Eu+Iu+Du)×Au+0.4 (El+Il+Dl)×Al
During the period of administration of the drug, accompanied symptoms, which have newly appeared and were thought to be closely related to and can not be denied with the relation for the administered medicament, are checked and searched in details of the fact, the day appeared, the day disappeared, degree, treatment, result and relation with the test drug, and studied the presence of adverse effect.
On the treatment of administration of the drug after 6 weeks, the results were evaluated.
Considering the progress of PASI, following five degrees of evaluation were applied as compared with the condition before administration.
Considering the overall improvement and safety evaluation such as adverse effect, following five degrees of evaluation were applied.

[2] = tested on: rejection of the transplantation of an organ such as kidney; settings: cited from earlier work
[3] = tested on: Normal human epidermal keratinocyte cells (NHEK); test: Growth inhibition on cultured human epidermal keratinocyte cells, Coulter counter method; type: cell-based; settings: for Number of cells/cm^2: control 95.5
Method: as §1, §2, §3
On the day of starting initial cultivation:
NHEK, 2500 cells/cm^2 (5000 cell/well), was inoculated in six 24-well culture plates.
as §4
On the remaining other plates, the medium was exchanged and mizoribine was added. (amount added: the same as above)
Method of calculating number of cells
On the cultivation, day 5, day 7 and day 9, respectively, one plate of 24-well culture plate was applied for calculating number of cells by Coulter counter, and the other one plate was applied for dye uptake method.
(a) Measurement by Coulter counter
Each well: washed with 0.2 ml of HEPES buffer saline
add 0.2 ml of trypsin/EDTA solution,
allow to stand at room temperature for 10 minutes,
then tap the 24-well culture plate by solid face to remove
added 0.3 ml of trypsin neutralization solution and separated
the cells by pipetting.
calculation of cells by Coulter counter
(counted particles over 7 μm .phi.)

[4] = cited from earlier work
[5] = in vivo; cited from earlier work
rats = settings: cited from earlier work
[6] = tested on: Normal human epidermal keratinocyte cells (NHEK); test: Growth inhibition on cultured human epidermal keratinocyte cells, Coulter counter method; type: cell-based; settings: mizoribine over 20 μg/ml, constant level; initial concentration 2.5×10^3 cells/ml
[7] = clinical trials; cited from earlier work
[8] = tested on: Normal human epidermal keratinocyte cells (NHEK); test: Growth inhibition on cultured human epidermal keratinocyte cells, dye uptake method
[9] = rat; cited from earlier work

In the case of NC(=O)c1ncn([C@@H]2O[C@H](CO)[C@@H](O)[C@H]2O)c1O [Mizoribine, 4-carbamoyl-1-β-D-ribofuranosyl-imidazolium-5-olate], the LD50 (mice; female, i.m.) is given as greater than 2800 mg/kg, the LD50 (mice; female, i.v.) is given as greater than 3042 mg/kg and the LD50 (mice; female, p.o.) is given as greater than 4883 mg/kg. For the same compound, the LD50 (mice; female, s.c.) was greater than 4883 mg/kg, the LD50 (mice; male, i.m.) was greater than 2800 mg/kg and the LD50 (mice; male, i.v.) was greater than 3042 mg/kg. For the same compound, the LD50 (mice; male, p.o.) was greater than 4883 mg/kg, the LD50 (mice; male, s.c.) was greater than 4883 mg/kg and the morphology of cells [1] was “changed widely expanded shape”. For the same compound, the overall improvement rate (psoriasis vulgaris; after 6 weeks) was 2, the usefulness (psoriasis vulgaris; after 6 weeks, overall improvement and safety) was 2 and the Adverse effect (psoriasis vulgaris; individual patients No. 1-4, 6 weeks) was “None”. For the same compound, the PASI post (psoriasis vulgaris; patient No. 1, PASI pre 20, 6 weeks) was 12, the PASI post (psoriasis vulgaris; patient No. 2, PASI pre 41.4, 6 weeks) was 20 and the PASI post (psoriasis vulgaris; patient No. 3, PASI pre 24.3, 6 weeks) was 14. The PASI post (psoriasis vulgaris; patient No. 4, PASI pre 21, 6 weeks) was 12, the “immunosuppressive activity / rejection of organ transplantation” value [2] was “suppresses the rejection of the transplantation of an organ such as kidney” and the “Number of cells/cm^2” value ([3]; 0.8 μg/ml, cultivation day 5, Coulter counter) was 69.7 ×10^3 cells/cm^2. For the same compound, the growth inhibition ([3]; 4 μg/ml) was “significant growth inhibition was observed and cells were grown extremely slowly”, the “Number of cells/cm^2” value ([3]; 4 μg/ml, cultivation day 5, Coulter counter) was 8.6 ×10^3 cells/cm^2 and the growth inhibition ([3]; 8 μg/ml) was “significant growth inhibition was observed”. For the same compound, the “Number of cells/cm^2” value ([3]; 20 μg/ml, cultivation day 5, Coulter counter) was 4.5 ×10^3 cells/cm^2, the inhibition at 0.8 µg/mL ([3]; Homo sapiens, NHEK, 120 h, 0.8 μg/ml, cultivation day 5, Coulter counter, read-out: Inhibition rate) was 27% and the inhibition at 4 µg/mL ([3]; Homo sapiens, NHEK, 120 h, 4 μg/ml, cultivation day 5, Coulter counter, read-out: Inhibition rate) was 91%. The inhibition at 20 µg/mL ([3]; Homo sapiens, NHEK, 120 h, 20 μg/ml, cultivation day 5, Coulter counter, read-out: Inhibition rate) was 95%, the “inhibition of growth of human epidermal keratinocyte cells at concentration presumed to be reached in clinical use” value ([3]; blood level approximately 1 μg/ml) was “effective for significant inhibition of growth of human epidermal keratinocyte cells” and the solubility in water [4] was “easily soluble in water”. For the same compound, the blood accumulation residue [5] was “lower blood accumulation residue”, the nephrotoxicity [5] was “no nephrotoxicity” and the transfer into brain [5] was “less transfer into brain”. The LD50 (rats; female, i.m.) was greater than 2800 mg/kg, the LD50 (rats; female, i.v.) was greater than 2606 mg/kg and the LD50 (rats; female, s.c.) was greater than 3975 mg/kg. For the same compound, the LD50 (rats; male, i.m.) was greater than 2800 mg/kg, the LD50 (rats; male, i.v.) was greater than 2572 mg/kg and the LD50 (rats; male, p.o.) was greater than 3100 mg/kg. For the same compound, the LD50 (rats; male, s.c.) was greater than 4161 mg/kg, the number of cells [6] was “approximately 4×10^3 cells/ml” and the Blood level [7] was “approximately 1 μg/ml”. For the same compound, the “growth inhibition rate, dye uptake method compared with Coulter counter method” value ([8]; mizoribine addition) was “slightly lower growth inhibition rate”, the OD665 value ([8]; where no difference in number of cells vs control by Coulter counter, lower level of concentration) was “Significant increase in the value at OD665” and the “Dermal level compared with plasma level” value [9] was “almost equal in plasma level”.
